Assay [1] concerns the target Serine/threonine-protein kinase Sgk2 (Homo sapiens) (UniProt Q9HBY8). The assay can be described thus: Inhibition of SGK2 (unknown origin) at 10 uM after 120 mins P33 radiolabeled kinase activity assay.
Assay [2] addresses T1, Serine/threonine-protein kinase TAO1 (Homo sapiens) (UniProt Q7L7X3).
T1 sequence (whole entry): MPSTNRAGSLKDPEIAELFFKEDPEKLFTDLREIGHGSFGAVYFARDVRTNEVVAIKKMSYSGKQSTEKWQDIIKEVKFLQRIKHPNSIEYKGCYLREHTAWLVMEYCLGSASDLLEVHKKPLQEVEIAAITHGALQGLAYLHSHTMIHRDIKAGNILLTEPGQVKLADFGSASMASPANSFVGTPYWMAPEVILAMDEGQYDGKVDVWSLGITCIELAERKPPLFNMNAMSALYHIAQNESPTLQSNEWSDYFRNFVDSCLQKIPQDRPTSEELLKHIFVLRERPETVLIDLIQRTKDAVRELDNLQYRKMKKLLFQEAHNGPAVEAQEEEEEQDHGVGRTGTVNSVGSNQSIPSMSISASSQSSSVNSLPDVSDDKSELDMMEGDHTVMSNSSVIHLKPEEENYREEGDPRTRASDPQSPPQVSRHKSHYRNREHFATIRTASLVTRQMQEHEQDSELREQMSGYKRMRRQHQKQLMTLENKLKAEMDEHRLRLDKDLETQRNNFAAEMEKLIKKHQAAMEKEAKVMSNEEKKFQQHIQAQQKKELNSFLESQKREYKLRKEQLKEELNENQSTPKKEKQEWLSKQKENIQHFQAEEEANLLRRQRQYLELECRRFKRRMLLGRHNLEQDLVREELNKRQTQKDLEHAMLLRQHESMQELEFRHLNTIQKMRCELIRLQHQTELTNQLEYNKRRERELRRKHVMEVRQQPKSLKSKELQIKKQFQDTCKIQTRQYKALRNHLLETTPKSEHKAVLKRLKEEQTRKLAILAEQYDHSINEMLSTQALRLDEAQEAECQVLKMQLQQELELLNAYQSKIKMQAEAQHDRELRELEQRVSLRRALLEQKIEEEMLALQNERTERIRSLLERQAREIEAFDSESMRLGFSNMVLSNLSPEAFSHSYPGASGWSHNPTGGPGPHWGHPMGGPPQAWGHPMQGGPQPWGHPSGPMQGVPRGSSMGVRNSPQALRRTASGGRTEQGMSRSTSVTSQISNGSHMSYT
The assay can be described thus: Inhibition of TAOK1 (unknown origin) at 10 uM after 120 mins P33 radiolabeled kinase activity assay.

Assay [3] concerns the target Vascular endothelial growth factor receptor 2 (Homo sapiens) (UniProt P35968). Put plainly: Inhibition of KDR (unknown origin) at 10 uM after 120 mins P33 radiolabeled kinase activity assay.
Assay [4] concerns the target Dual specificity mitogen-activated protein kinase kinase 4 (Homo sapiens) (UniProt P45985). The assay can be described thus: Inhibition of MKK4 (unknown origin) at 10 uM after 120 mins P33 radiolabeled kinase activity assay.
The target of assay [5] is Calcium/calmodulin-dependent protein kinase kinase 2 (Homo sapiens) (UniProt Q96RR4). Put plainly: Inhibition of CAMKK2 (unknown origin) at 10 uM after 120 mins P33 radiolabeled kinase activity assay.
Chain of Calcium/calmodulin-dependent protein kinase kinase 2 (Homo sapiens) (Q96RR4 2-588 limits assumed): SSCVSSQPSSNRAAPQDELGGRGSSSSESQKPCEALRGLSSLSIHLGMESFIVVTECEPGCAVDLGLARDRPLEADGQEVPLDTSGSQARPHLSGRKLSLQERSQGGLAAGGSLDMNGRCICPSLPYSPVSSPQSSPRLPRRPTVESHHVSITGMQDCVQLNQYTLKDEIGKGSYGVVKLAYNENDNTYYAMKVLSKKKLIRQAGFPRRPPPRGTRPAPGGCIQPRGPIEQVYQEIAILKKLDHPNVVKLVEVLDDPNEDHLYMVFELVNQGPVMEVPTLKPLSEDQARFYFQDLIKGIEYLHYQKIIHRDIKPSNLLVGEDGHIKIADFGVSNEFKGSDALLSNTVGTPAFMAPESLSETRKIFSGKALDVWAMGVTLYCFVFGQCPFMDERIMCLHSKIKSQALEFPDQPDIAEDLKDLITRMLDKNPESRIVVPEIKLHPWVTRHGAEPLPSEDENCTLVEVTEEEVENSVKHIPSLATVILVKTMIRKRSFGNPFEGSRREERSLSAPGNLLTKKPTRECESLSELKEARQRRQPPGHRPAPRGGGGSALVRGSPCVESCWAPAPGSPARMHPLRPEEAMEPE
The target of assay [6] is Cyclin-Y/Cyclin-dependent kinase 16 (Homo sapiens) (UniProt Q00536+Q8ND76). The assay can be described thus: Inhibition of CDK16/cyclin Y (unknown origin) at 10 uM after 120 mins P33 radiolabeled kinase activity assay. The class given is protein-complex assay.
In assay [7] the target is Bone morphogenetic protein receptor type-2 (Homo sapiens) (UniProt Q13873). Put plainly: Inhibition of BMPR2 (unknown origin) at 10 uM after 120 mins P33 radiolabeled kinase activity assay.
In assay [8] the target is T2, Serine/threonine-protein kinase VRK1 (Homo sapiens) (UniProt Q99986).
T2 sequence (whole entry): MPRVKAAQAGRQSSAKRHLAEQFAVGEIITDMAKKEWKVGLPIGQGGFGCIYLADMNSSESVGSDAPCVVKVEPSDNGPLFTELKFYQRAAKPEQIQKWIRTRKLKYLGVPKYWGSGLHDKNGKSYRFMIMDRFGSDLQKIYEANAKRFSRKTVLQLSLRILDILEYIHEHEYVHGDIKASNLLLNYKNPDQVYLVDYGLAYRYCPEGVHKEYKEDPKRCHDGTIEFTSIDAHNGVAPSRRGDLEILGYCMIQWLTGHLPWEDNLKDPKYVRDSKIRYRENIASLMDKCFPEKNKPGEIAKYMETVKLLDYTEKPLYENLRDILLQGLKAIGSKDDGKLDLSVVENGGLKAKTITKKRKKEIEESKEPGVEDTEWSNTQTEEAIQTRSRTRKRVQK
The assay can be described thus: Inhibition of VRK1 (unknown origin) at 10 uM after 120 mins P33 radiolabeled kinase activity assay.

Assay [9] concerns the target Rho-associated protein kinase 1 (Homo sapiens) (UniProt Q13464). Put plainly: Inhibition of ROCK1 (unknown origin) at 10 uM after 120 mins P33 radiolabeled kinase activity assay.
Assay [10] concerns the target Dual specificity mitogen-activated protein kinase kinase 1 (Homo sapiens) (UniProt Q02750). Put plainly: Inhibition of MEK1 (unknown origin) at 10 uM after 120 mins P33 radiolabeled kinase activity assay.
The target in assay [11] is T3, Testis-specific serine/threonine-protein kinase 2 (Homo sapiens) (UniProt Q96PF2).
T3 sequence (whole entry): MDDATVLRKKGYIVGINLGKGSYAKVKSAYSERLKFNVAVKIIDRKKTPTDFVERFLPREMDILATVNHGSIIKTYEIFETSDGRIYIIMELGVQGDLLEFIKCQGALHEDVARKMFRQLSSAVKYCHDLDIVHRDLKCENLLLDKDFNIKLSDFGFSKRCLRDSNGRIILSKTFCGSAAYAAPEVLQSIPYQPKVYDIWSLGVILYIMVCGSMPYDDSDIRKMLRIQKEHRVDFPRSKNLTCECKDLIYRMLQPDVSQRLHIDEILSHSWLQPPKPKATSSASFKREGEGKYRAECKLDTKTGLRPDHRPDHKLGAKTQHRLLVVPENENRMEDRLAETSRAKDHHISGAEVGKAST
Put plainly: Inhibition of TSSK2 (unknown origin) at 10 uM after 120 mins P33 radiolabeled kinase activity assay.

Assay [12] concerns the target Lymphokine-activated killer T-cell-originated protein kinase (Homo sapiens) (UniProt Q96KB5). The assay can be described thus: Inhibition of PBK (unknown origin) at 10 uM after 120 mins P33 radiolabeled kinase activity assay.
In assay [13] the target is Serine/threonine-protein kinase 3 (Homo sapiens) (UniProt Q13188). Put plainly: Inhibition of MST2 (unknown origin) at 10 uM after 120 mins P33 radiolabeled kinase activity assay.
Chain of Serine/threonine-protein kinase 3 (Homo sapiens) (Q13188 whole entry): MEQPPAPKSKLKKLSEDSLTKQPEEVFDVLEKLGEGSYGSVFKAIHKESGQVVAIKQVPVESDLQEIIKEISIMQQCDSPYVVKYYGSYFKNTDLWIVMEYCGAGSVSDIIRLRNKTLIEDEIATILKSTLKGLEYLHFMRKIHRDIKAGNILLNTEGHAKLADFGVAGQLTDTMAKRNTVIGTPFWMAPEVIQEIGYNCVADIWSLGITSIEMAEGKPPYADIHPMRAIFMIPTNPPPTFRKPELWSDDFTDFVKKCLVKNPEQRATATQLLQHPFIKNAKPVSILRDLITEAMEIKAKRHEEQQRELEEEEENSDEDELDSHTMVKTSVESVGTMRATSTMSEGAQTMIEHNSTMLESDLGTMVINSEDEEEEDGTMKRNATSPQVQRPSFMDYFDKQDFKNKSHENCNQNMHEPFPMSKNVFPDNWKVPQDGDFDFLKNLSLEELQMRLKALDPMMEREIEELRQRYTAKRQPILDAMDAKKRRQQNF
Assay [14] addresses Testis-specific serine/threonine-protein kinase 6 (Homo sapiens) (UniProt Q9BXA6). The assay can be described thus: Inhibition of SSTK (unknown origin) at 10 uM after 120 mins P33 radiolabeled kinase activity assay.
Assay [15] concerns the target Serine/threonine-protein kinase VRK2 (Homo sapiens) (UniProt Q86Y07). The assay can be described thus: Inhibition of VRK2 (unknown origin) at 10 uM after 120 mins P33 radiolabeled kinase activity assay.
The target of assay [16] is Interleukin-1 receptor-associated kinase 4 (Homo sapiens) (UniProt Q9NWZ3). Put plainly: Inhibition of IRAK4 (unknown origin) at 10 uM after 120 mins P33 radiolabeled kinase activity assay.
Chain of Interleukin-1 receptor-associated kinase 4 (Homo sapiens) (Q9NWZ3 whole entry): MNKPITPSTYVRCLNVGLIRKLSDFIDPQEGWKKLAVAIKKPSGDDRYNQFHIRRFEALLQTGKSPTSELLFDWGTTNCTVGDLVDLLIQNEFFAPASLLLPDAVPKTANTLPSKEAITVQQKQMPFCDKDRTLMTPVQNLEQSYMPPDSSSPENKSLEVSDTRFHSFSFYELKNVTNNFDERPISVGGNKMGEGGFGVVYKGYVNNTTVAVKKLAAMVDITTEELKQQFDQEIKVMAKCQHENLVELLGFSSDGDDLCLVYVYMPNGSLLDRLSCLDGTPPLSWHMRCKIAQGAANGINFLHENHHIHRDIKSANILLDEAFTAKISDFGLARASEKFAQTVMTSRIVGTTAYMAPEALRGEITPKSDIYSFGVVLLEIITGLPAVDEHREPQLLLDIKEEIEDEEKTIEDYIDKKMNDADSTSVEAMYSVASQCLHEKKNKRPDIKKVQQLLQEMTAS

Chain of Vascular endothelial growth factor receptor 2 (Homo sapiens) (P35968 whole entry): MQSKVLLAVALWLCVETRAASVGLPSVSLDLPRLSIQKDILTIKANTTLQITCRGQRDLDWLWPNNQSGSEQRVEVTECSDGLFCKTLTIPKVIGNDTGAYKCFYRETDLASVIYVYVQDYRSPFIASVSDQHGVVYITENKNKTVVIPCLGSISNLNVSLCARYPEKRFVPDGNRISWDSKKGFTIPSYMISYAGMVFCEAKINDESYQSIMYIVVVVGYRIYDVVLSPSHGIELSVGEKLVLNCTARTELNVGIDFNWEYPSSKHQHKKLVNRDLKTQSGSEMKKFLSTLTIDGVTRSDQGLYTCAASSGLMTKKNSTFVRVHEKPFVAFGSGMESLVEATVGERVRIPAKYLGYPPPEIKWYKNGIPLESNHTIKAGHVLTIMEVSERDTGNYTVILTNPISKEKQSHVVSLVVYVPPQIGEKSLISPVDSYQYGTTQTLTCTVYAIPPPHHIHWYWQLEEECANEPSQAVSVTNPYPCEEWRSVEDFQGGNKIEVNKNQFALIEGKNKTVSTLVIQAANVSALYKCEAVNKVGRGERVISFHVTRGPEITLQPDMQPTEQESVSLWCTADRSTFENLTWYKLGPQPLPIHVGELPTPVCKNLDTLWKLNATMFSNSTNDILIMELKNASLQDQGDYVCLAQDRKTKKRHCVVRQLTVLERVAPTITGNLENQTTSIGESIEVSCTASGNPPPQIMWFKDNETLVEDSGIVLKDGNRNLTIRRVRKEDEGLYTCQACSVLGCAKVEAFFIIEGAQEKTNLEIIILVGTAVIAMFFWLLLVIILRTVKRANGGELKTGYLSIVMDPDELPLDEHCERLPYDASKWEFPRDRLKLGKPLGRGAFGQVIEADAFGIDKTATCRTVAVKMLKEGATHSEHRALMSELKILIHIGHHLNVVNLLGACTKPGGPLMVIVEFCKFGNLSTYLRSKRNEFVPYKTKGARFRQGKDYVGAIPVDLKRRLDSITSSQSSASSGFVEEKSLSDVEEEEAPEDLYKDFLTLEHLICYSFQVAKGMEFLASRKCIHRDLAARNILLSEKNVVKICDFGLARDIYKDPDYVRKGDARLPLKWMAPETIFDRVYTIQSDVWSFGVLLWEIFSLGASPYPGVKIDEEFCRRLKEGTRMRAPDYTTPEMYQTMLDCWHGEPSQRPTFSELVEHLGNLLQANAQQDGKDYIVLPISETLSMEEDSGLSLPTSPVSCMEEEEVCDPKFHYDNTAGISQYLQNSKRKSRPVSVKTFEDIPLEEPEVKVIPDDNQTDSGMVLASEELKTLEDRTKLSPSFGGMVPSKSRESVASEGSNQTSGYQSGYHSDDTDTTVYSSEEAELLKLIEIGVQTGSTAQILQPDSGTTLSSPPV
Chain of Dual specificity mitogen-activated protein kinase kinase 4 (Homo sapiens) (P45985 whole entry): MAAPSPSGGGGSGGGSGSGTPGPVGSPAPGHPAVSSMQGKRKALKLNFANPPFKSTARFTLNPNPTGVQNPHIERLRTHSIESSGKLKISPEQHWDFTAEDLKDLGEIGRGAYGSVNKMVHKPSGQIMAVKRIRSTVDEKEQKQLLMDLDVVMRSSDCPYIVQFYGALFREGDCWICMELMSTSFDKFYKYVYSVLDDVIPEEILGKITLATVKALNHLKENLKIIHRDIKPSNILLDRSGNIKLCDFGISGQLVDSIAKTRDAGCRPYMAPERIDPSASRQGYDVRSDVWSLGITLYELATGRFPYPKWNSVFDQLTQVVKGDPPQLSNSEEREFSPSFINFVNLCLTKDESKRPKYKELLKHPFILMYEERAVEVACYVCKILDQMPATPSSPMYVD
Chain of Dual specificity mitogen-activated protein kinase kinase 1 (Homo sapiens) (Q02750 whole entry): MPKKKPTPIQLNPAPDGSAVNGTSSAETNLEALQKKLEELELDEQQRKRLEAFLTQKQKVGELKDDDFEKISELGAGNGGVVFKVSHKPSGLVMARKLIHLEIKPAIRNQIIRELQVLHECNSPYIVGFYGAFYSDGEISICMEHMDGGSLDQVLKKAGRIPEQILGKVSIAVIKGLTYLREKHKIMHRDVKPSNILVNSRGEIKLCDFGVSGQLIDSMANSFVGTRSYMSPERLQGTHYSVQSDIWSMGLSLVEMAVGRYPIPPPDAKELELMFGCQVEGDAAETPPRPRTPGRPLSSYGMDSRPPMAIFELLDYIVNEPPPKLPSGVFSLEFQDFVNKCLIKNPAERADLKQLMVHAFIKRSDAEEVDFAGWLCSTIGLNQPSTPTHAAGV
Chain of Lymphokine-activated killer T-cell-originated protein kinase (Homo sapiens) (Q96KB5 whole entry): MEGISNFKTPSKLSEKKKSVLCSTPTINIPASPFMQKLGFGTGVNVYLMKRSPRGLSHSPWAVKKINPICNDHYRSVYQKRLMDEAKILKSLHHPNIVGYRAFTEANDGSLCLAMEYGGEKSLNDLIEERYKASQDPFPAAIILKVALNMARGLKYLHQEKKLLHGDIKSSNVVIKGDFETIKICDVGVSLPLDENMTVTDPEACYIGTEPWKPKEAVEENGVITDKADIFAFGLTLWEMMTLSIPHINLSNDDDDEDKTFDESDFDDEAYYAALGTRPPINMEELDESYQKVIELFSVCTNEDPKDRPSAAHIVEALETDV
Chain of Serine/threonine-protein kinase VRK2 (Homo sapiens) (Q86Y07 whole entry): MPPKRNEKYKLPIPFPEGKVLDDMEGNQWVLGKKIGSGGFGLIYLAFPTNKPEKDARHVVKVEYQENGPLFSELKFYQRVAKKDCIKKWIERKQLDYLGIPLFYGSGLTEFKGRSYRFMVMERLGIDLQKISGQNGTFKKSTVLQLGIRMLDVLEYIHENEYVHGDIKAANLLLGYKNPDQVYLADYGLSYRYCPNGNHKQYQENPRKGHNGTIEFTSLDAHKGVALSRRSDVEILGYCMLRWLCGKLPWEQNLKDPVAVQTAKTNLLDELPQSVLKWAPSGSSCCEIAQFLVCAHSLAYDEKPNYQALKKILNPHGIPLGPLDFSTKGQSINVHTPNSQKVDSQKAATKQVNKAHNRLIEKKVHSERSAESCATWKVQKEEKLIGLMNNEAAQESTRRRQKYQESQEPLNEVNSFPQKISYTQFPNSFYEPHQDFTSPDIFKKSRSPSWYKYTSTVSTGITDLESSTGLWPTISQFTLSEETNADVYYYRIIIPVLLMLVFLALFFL
Chain of Testis-specific serine/threonine-protein kinase 6 (Homo sapiens) (Q9BXA6 whole entry): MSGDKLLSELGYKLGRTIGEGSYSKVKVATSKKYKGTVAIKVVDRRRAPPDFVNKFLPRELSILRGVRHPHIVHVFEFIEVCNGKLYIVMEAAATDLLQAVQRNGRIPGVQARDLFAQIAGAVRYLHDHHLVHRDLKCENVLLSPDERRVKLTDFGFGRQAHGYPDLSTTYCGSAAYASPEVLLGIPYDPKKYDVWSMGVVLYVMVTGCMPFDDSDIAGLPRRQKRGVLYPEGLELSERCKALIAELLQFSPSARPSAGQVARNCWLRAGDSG

For the compound `CS(=O)(=O)c1cccc(Nc2nccc(-c3sc(N4CCOCC4)nc3-c3cccc(NS(=O)(=O)c4c(F)cccc4F)c3)n2)c1`, the inhibition (usually the relative decrease from the control value, in per cent) in assay [1] is 50%; in [2], 43.6%; in assay [3], 96.3%; in assay [4] it was 19.4%; in assay [5], -1.4%; in assay [6], 92%. Moreover, the inhibition was 19.6% in [7]; 15.4% in assay [8]; -6.9% in assay [9]; 72.5% in assay [10]; 1.83% in assay [11].
As for `CC(C)(C)c1cc(NC(=O)Nc2ccc(Oc3ccncc3)cc2)no1`, the inhibition was 15.5% in assay [1]; 90.4% in assay [2]; 12.2% in [12]; -4.9% in [13]; 98.6% in [3]; 1.14% in assay [4]. In addition, the inhibition in assay [14] was 7.1%; in [5] it was 54.2%; in [6], 84.5%; in [7] it was 6.56%; in [15], -5.34%; in assay [8], 14%. Further, the inhibition in [9] was 9.07%; in assay [16] it was 24.7%; in assay [10], 22%; in assay [11], 1.87%.
On to `COCCNC(=O)c1ccc2c(c1)nc(-c1cnc(-c3ccc(Cl)cc3)[nH]1)n2CCOC`, for which the inhibition in assay [2] is 1.85%; in [12], 11.6%; in assay [13] it was -5.33%; in [3], 7.13%; in [14], -0.51%; in assay [15], -4.56%. In addition, the inhibition in [8] came to 3.79%; in assay [16] it was 13.9%; in assay [11], 3.82%.

The values above are taken from ChEMBL document CHEMBL3627608, “Crystal structures of human RIP2 kinase catalytic domain complexed with ATP-competitive inhibitors: Foundations for understanding inhibitor selectivity” (Bioorg Med Chem, 2015).
